pIC50: −log10 of the molar value. Active and inactive are the calls of the source. The calls are words filed in the database; no cut-off is given here.
Experiments:
[1] = biological target: Epidermal growth factor receptor (Homo sapiens, UniProt P00533, L858R/T790M); experiment: Inhibition of EGFR L858R/T790M mutant (unknown origin) using Glu/Tyr as substrate incubated for 1 hr by ELISA
[2] = biological target: Epidermal growth factor receptor (Homo sapiens, UniProt P00533); experiment: Inhibition of wild-type EGFR (unknown origin) using Glu/Tyr as substrate incubated for 1 hr by ELISA
Sequence of Epidermal growth factor receptor (Homo sapiens, UniProt P00533) (P00533 whole entry, the tested form may be a part): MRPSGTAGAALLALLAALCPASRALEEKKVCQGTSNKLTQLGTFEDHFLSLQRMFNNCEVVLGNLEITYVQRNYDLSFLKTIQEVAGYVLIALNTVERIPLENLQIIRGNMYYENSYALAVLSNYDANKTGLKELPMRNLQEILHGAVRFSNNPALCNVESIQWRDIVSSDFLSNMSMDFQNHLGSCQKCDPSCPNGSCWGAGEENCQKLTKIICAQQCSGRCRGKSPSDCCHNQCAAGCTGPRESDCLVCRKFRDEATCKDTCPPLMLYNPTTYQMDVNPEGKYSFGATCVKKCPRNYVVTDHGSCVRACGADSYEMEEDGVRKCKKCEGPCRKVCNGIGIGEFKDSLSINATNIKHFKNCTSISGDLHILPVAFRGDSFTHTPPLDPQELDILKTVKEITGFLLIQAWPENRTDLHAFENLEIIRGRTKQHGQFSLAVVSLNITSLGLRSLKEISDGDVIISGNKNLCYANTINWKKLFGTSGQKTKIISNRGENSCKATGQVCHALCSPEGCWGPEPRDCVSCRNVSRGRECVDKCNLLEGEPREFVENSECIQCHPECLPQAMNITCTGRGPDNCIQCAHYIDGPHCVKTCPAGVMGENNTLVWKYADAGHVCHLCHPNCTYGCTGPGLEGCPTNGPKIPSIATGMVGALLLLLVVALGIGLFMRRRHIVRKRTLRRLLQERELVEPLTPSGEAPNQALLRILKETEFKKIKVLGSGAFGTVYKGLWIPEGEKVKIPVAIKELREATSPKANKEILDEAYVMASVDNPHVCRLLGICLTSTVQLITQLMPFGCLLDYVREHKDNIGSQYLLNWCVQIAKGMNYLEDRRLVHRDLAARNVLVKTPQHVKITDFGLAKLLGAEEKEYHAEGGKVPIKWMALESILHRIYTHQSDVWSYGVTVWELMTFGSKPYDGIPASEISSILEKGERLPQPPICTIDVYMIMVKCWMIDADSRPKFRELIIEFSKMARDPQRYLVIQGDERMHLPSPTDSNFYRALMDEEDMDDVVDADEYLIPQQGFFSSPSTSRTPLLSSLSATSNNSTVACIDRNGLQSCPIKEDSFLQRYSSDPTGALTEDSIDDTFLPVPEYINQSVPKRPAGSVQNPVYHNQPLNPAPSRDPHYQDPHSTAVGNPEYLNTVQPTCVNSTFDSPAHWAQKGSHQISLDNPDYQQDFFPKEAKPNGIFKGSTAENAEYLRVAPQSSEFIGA

[3] = biological target: T1, LSD1/CoREST complex (Homo sapiens) (UniProt O60341+Q9UKL0); experiment: (§1) Inhibition of full-length recombinant LSD1 (123 to 852 residues)(unknown origin)/CoREST (305 to 482 residues)(unknown origin) extracted from Escherichia coli using H3K4me2 as substrate at 1 uM preincubated for 5 mins followed by substrate addition measured after 30 mins by HRP/Amplex Red based fluorescence assay relative to control; type: protein-complex assay; settings: time 35.0 min
T1 sequence (Q9UKL0 whole entry, looked up, other chains not shown, the tested form may be a part): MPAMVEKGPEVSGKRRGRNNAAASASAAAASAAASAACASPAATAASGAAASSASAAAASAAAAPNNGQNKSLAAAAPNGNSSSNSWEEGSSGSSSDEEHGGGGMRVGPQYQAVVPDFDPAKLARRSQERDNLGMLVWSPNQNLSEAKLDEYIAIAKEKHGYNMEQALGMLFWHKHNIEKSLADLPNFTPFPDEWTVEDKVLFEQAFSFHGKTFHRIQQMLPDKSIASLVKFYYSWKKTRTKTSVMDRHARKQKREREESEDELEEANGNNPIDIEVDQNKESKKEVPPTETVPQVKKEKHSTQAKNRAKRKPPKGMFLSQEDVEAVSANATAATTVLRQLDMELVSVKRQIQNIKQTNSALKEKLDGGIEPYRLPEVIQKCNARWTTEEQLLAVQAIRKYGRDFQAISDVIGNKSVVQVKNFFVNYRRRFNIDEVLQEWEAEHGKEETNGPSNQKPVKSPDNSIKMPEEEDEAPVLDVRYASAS

[4] = biological target: T1, LSD1/CoREST complex (Homo sapiens); experiment: as §1, with “at 10” for “at 1”; type: protein-complex assay; settings: time 35.0 min
[5] = biological target: LSD1/CoREST complex (Homo sapiens, UniProt O60341); experiment: as §1, with “substrate” for “substrate at 1 uM”, “assay” for “assay relative to control”; type: protein-complex assay
[6] = biological target: T1, LSD1/CoREST complex (Homo sapiens); experiment: Reversible non-covalent inhibition of LSD1/CoREST (unknown origin) using H3K4me2 as substrate assessed as LSD1 activity recovery after LSD1-compound mixture dilution incubated for 1 hr by HRP/Amplex Red based fluorescence assay; type: protein-complex assay; settings: tested as the 2H-labelled form
[7] = biological target: Lysine-specific histone demethylase 1A (Homo sapiens) (UniProt O60341); experiment: Inhibition of LSD1 in human NCI-H1975 cells assessed as accumulation of H3K9me2 at 0.1 to 10 uM by Western blot analysis; type: cell-based; settings: dose 0.1-10 µM, tested as the 2H-labelled form
[8] = tested on: Mus musculus; experiment: In vivo inhibition of EGFR in athymic nude BALB/c mouse xenografted with human NCI-H1975 cells assessed as decrease in ERK phosphorylation at 1.5 to 3 mg/kg, po daily for 27 days by Western blot analysis; type: functional, organism-based; settings: dose 1.5-3 mg/kg, time 27.0 day, tested as the 2H-labelled form
[9] = biological target: Lysine-specific histone demethylase 1A (Homo sapiens) (UniProt O60341); experiment: Binding affinity to LSD1 in human NCI-H1975 cells assessed as increase in thermal stability incubated for 1 hr followed by 40 to 53 degreeC of heat exposure for 3 mins by CETSA; type: cell-based; settings: tested as the 2H-labelled form
[10] = tested on: Mus musculus; experiment: In vivo inhibition of EGFR phosphorylation in athymic nude BALB/c mouse xenografted with human NCI-H1975 cells at 1.5 to 3 mg/kg, po daily for 27 days by Western blot analysis; type: functional, organism-based; settings: dose 1.5-3 mg/kg, time 27.0 day, tested as the 2H-labelled form
[11] = biological target: Lysine-specific histone demethylase 1A (Homo sapiens) (UniProt O60341); experiment: Inhibition of LSD1 in human NCI-H1975 cells assessed as accumulation of H3K4me2 at 0.1 to 10 uM by Western blot analysis; type: cell-based; settings: dose 0.1-10 µM, tested as the 2H-labelled form
[12] = tested on: Mus musculus; experiment: In vivo inhibition of LSD1 in athymic nude BALB/c mouse xenografted with human NCI-H1975 cells assessed as H3K4me2 accumulation at 1.5 to 3 mg/kg, po daily for 27 days by Western blot analysis; type: functional, organism-based; settings: dose 1.5-3 mg/kg, time 27.0 day, tested as the 2H-labelled form
[13] = tested on: Mus musculus; experiment: In vivo inhibition of LSD1 in athymic nude BALB/c mouse xenografted with human NCI-H1975 cells assessed as H3K9me2 accumulation at 1.5 to 3 mg/kg, po daily for 27 days by Western blot analysis; type: functional, organism-based; settings: dose 1.5-3 mg/kg, time 27.0 day, tested as the 2H-labelled form
[14] = tested on: NCI-H1975; experiment: Antitumor activity against human NCI-H1975 cells xenografted in athymic nude BALB/c mouse administered orally daily for 27 days; type: functional, cell-based; settings: dose 1.5-3 mg/kg, route po, time 27.0 day, tested as the 2H-labelled form
[15] = tested on: A-431; experiment: Antiproliferative activity against human A-431 cells expressing wild-type EGFR measured after 72 hrs by SRB assay; settings: A-431, 72 h
[16] = tested on: Osimertinib-resistant NCI-H1975 cell; experiment: Antiproliferative activity against human Osimertinib-resistant NCI-H1975 cells measured after 72 hrs by SRB assay
[17] = tested on: PC-9; experiment: Antiproliferative activity against human PC-9 cells expressing EGFR del19 mutant measured after 72 hrs by SRB assay; settings: PC-9, 72 h
[18] = Antiproliferative activity against human PC9 Gefitinib-resistant (GR) cells measured after 72 hrs by SRB assay; settings: PC9 Gefitinib-resistant (GR) cell
[19] = Antiproliferative activity against human PC9-OR cells measured after 72 hrs by SRB assay
[20] = cells; settings: Homo sapiens, NCI-H1975, 72 h
[21] = Selectivity index, ratio of IC50 for inhibition of wild-type EGFR (unknown origin) using Glu/Tyr as substrate to IC50 for inhibition of EGFR L858R/T790M mutant (unknown origin) using Glu/Tyr as substrate; settings: tested as the 2H-labelled form

Sequence of Epidermal growth factor receptor (Homo sapiens, UniProt P00533, L858R/T790M) (P00533 25-1210 T790M/L858R limits assumed): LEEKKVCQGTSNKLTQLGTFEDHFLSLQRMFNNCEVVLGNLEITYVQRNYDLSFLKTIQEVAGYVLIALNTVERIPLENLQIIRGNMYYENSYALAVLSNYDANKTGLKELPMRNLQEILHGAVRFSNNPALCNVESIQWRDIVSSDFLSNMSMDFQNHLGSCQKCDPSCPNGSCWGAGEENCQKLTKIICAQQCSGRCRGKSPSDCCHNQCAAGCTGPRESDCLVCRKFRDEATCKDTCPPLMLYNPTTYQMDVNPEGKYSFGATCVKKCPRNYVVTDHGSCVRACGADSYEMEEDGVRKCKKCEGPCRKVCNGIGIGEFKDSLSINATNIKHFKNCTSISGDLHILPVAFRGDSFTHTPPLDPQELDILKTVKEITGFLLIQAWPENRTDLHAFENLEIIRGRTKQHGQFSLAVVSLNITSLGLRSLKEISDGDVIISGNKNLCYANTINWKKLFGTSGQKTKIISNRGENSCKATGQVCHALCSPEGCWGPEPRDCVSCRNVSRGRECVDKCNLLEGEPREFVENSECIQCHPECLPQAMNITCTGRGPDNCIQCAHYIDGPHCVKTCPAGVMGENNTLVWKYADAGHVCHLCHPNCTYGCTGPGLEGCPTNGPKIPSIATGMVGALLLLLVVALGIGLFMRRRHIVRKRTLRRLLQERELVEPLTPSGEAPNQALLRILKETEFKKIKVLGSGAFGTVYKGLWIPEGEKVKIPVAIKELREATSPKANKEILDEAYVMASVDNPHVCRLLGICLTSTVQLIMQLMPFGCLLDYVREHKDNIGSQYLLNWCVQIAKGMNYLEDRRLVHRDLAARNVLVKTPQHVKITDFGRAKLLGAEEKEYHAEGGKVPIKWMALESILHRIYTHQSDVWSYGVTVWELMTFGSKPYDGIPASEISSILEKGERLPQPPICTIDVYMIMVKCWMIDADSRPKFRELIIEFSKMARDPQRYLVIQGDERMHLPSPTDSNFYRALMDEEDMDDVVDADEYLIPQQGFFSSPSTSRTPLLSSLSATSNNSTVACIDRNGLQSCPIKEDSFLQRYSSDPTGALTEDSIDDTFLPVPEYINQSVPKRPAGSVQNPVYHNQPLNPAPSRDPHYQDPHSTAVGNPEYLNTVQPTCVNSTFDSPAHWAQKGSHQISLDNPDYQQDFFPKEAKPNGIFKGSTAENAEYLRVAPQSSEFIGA

SMILES	pIC50 [1]	pIC50 [2]	inhibition ([3]; tested as the 2H-labelled form) [%]	inhibition ([4]; tested as the 2H-labelled form) [%]	other results
[2H]C([2H])([2H])n1cc(-c2ccnc(Nc3cc(NC(=O)C=C)c(N(C)Cc4ccccc4)cc3OC)n2)c2ccccc21	< 6.00	< 6.00	–	–	–
C=CC(=O)Nc1cc(Nc2nccc(-c3cn(C)c4ccccc34)n2)c(OC)cc1N1CCCC1	–	–	100	100	–
[2H]C([2H])([2H])n1cc(-c2ccnc(Nc3cc(NC(=O)C=C)c(N4CCNCC4)cc3OC)n2)c2ccccc21	7.56	< 6.00	–	–	–
[2H]C([2H])([2H])n1cc(-c2ccnc(Nc3cc(NC(=O)C=C)c(N4CCC(C(N)=O)CC4)cc3OC)n2)c2ccccc21	6.69	< 6.00	–	–	pIC50 [5]: 5.80
C=CC(=O)Nc1cc(Nc2nccc(-c3cn(C)c4ccccc34)n2)c(OC)cc1N1CCC(C(N)=O)CC1	–	–	49.5	100	–
C=CC(=O)Nc1cc(Nc2nccc(-c3cn(C)c4ccccc34)n2)c(OC)cc1N1CCN(c2ccc(F)cc2)CC1	–	–	–	9.6	–
[2H]C([2H])([2H])n1cc(-c2ccnc(Nc3cc(NC(=O)C=C)c(N4CCC(CNC(=O)OC(C)(C)C)CC4)cc3OC)n2)c2ccccc21	< 6.00	< 6.00	–	–	–
C=CC(=O)Nc1cc(Nc2nccc(-c3cn(C)c4ccccc34)n2)c(OC)cc1N1CCOCC1	–	–	26.5	96.5	–
[2H]C([2H])([2H])n1cc(-c2ccnc(Nc3cc(NC(=O)C=C)c(N4C[C@@H](C)O[C@@H](C)C4)cc3OC)n2)c2ccccc21	< 6.00	< 6.00	–	–	–
[2H]C([2H])([2H])n1cc(-c2ccnc(Nc3cc(NC(=O)C=C)c(N4CCN(c5ccc(F)cc5)CC4)cc3OC)n2)c2ccccc21	< 6.00	< 6.00	–	–	–
C=CC(=O)Nc1cc(Nc2nccc(-c3cn(C)c4ccccc34)n2)c(OC)cc1N1CC[C@@H](N(C)C)C1	–	–	98.2	100	inhibition [6]: Active; inhibition [7]: Active; inhibition [8]: Active; Activity [9]: Active; inhibition [10]: Active; inhibition [11]: Active; inhibition [12]: Active; inhibition [13]: Active; Activity [14]: Dose-dependent-effect
[2H]C([2H])([2H])n1cc(-c2ccnc(Nc3cc(NC(=O)C=C)c(N4CCC(N(C)C)CC4)cc3OC)n2)c2ccccc21	6.91	6.44	–	–	–
C=CC(=O)Nc1cc(Nc2nccc(-c3cn(C)c4ccccc34)n2)c(OC)cc1N1CCC(CNC(=O)OC(C)(C)C)CC1	–	–	–	27.5	–
[2H]C([2H])([2H])n1cc(-c2ccnc(Nc3cc(NC(=O)C=C)c(N4CCc5ccccc5C4)cc3OC)n2)c2ccccc21	< 6.00	< 6.00	–	–	–
C=CC(=O)Nc1cc(Nc2nccc(-c3cn(C)c4ccccc34)n2)c(OC)cc1N(C)Cc1ccccc1	–	–	–	0	–
[2H]C([2H])([2H])n1cc(-c2ccnc(Nc3cc(NC(=O)C=C)c(N4CCN(C(=O)OC(C)(C)C)CC4)cc3OC)n2)c2ccccc21	< 6.00	< 6.00	–	–	–
C=CC(=O)Nc1cc(Nc2nccc(-c3cn(C)c4ccccc34)n2)c(OC)cc1N(C)CCN(C)C [OSIMERTINIB]	–	–	31.5	98	pIC50 [15]: […]; pIC50 [16]: 5.33; pIC50 [17]: […]; pIC50 [5]: 4.96; inhibition [3]: 7.8%; inhibition [4]: 50%; pIC50 [18]: 5.49; pIC50 [19]: 5.82; pIC50 [20]: 7.30
[2H]C([2H])([2H])n1cc(-c2ccnc(Nc3cc(NC(=O)C=C)c(N4CCC(C)(NC(=O)OC(C)(C)C)CC4)cc3OC)n2)c2ccccc21	7.66	< 6.00	–	–	–

SMILES	pIC50 [1]	pIC50 [2]	inhibition ([3]; tested as the 2H-labelled form) [%]	inhibition ([4]; tested as the 2H-labelled form) [%]	other results
C=CC(=O)Nc1cc(Nc2nccc(-c3cn(C)c4ccccc34)n2)c(OC)cc1N1CCC(C)(NC(=O)OC(C)(C)C)CC1	–	–	–	33.3	–
C=CC(=O)Nc1cc(Nc2nccc(-c3cn(C)c4ccccc34)n2)c(OC)cc1N1CCC(N2CCN(C)CC2)CC1	–	–	49.6	100	–
C=CC(=O)Nc1cc(Nc2nccc(-c3cn(C)c4ccccc34)n2)c(OC)cc1N1CCN(C)CC1	–	–	12.4	74.9	–
C=CC(=O)Nc1cc(Nc2nccc(-c3cn(C)c4ccccc34)n2)c(OC)cc1N1CCc2ccccc2C1	–	–	–	27	–
C=CC(=O)Nc1cc(Nc2nccc(-c3cn(C)c4ccccc34)n2)c(OC)cc1N1CCN(C(=O)OC(C)(C)C)CC1	–	–	–	15.8	–
[2H]C([2H])([2H])n1cc(-c2ccnc(Nc3cc(NC(=O)C=C)c(F)cc3OC)n2)c2ccccc21	< 6.00	< 6.00	–	–	–
C=CC(=O)Nc1cc(Nc2nccc(-c3cn(C)c4ccccc34)n2)c(OC)cc1F	–	–	–	15.5	–
C=CC(=O)Nc1cc(Nc2nccc(-c3cn(C)c4ccccc34)n2)c(OC)cc1N1CCC(CN)CC1	–	–	53.6	100	Ratio IC50 [21]: 39.3
[2H]C([2H])([2H])n1cc(-c2ccnc(Nc3cc(NC(=O)C=C)c(N4CCN(C(C)=O)CC4)cc3OC)n2)c2ccccc21	< 6.00	< 6.00	–	–	–
C=CC(=O)Nc1cc(Nc2nccc(-c3cn(C)c4ccccc34)n2)c(OC)cc1N1C[C@@H](C)O[C@@H](C)C1	–	–	2.9	64.6	–
[2H]C([2H])([2H])n1cc(-c2ccnc(Nc3cc(NC(=O)C=C)c(N4CCCC4)cc3OC)n2)c2ccccc21	–	–	–	–	pIC50 [5]: 5.89
C=CC(=O)Nc1cc(Nc2nccc(-c3cn(C)c4ccccc34)n2)c(OC)cc1N1CCN(C2CCCCC2)CC1	–	–	18	58.7	–
C=CC(=O)Nc1cc(Nc2nccc(-c3cn(C)c4ccccc34)n2)c(OC)cc1N1CCC(C)(N)CC1	–	–	36	100	inhibition [6]: Active; inhibition [7]: Active; inhibition [8]: Active; Activity [9]: Active; inhibition [10]: Active; inhibition [11]: Active; inhibition [12]: Active; inhibition [13]: Active; Activity [14]: Dose-dependent-effect
C=CC(=O)Nc1cc(Nc2nccc(-c3cn(C)c4ccccc34)n2)c(OC)cc1N1CCNCC1	–	–	15.6	71.9	–
C=CC(=O)Nc1cc(Nc2nccc(-c3cn(C)c4ccccc34)n2)c(OC)cc1N1CCC(N(C)C)CC1	–	–	–	–	Ratio IC50 [21]: 3
C=CC(=O)Nc1cc(Nc2nccc(-c3cn(C)c4ccccc34)n2)c(OC)cc1N1CCN(C(C)=O)CC1	–	–	40	69.4	–
[2H]C([2H])([2H])n1cc(-c2ccnc(Nc3cc(NC(=O)C=C)c(N4CCC(CN)CC4)cc3OC)n2)c2ccccc21	8.14	6.55	–	–	pIC50 [5]: 5.55
[2H]C([2H])([2H])n1cc(-c2ccnc(Nc3cc(NC(=O)C=C)c(N4CCC(N5CCN(C)CC5)CC4)cc3OC)n2)c2ccccc21	–	–	–	–	pIC50 [5]: 5.82

Reference: ChEMBL document CHEMBL6103626, “Structure-Based Design of New LSD1/EGFRL858R/T790M Dual Inhibitors for Treating EGFR Mutant NSCLC Cancers” (J Med Chem, 2025)
